Legend:
[1] = system: patients with BENTA; experiment: Clinical trial of MALT1 inhibitors for BENTA (Example 2); assay type: in vivo; details: oral once daily, 25 mg/day up to 1000 mg/day
Protocol: MALT1 inhibitors (e.g., Compounds 1.1, 1.26, 1.27, 1.30, 1.33, 2.1, and/or 2.4) are used to treat patients with BENTA. MALT1 inhibitors (e.g., Compounds 1.1, 1.26, 1.27, 1.30, 1.33, 2.1, and/or 2.4) are formulated in an oral dosage form and administered to patients once daily at a starting dose of 25 mg/day. Alternatively, the daily dose is escalated from 25 mg/day to 1000 mg/day.

[2] = target: T1, full-length human MALT1 (Homo sapiens, UniProt Q9UDY8); experiment: MALT1 cleavage of HOIL1 (Example 5); assay type: biochemical; details: HOIL1 0.05 μg/μL with MALT1, 2 h at 37° C.; gel electrophoresis/immunoblot
T1 construct: Recombinant full-length human MALT1 protein was expressed and purified; made in house
T1 sequence (Q9UDY8 1-824): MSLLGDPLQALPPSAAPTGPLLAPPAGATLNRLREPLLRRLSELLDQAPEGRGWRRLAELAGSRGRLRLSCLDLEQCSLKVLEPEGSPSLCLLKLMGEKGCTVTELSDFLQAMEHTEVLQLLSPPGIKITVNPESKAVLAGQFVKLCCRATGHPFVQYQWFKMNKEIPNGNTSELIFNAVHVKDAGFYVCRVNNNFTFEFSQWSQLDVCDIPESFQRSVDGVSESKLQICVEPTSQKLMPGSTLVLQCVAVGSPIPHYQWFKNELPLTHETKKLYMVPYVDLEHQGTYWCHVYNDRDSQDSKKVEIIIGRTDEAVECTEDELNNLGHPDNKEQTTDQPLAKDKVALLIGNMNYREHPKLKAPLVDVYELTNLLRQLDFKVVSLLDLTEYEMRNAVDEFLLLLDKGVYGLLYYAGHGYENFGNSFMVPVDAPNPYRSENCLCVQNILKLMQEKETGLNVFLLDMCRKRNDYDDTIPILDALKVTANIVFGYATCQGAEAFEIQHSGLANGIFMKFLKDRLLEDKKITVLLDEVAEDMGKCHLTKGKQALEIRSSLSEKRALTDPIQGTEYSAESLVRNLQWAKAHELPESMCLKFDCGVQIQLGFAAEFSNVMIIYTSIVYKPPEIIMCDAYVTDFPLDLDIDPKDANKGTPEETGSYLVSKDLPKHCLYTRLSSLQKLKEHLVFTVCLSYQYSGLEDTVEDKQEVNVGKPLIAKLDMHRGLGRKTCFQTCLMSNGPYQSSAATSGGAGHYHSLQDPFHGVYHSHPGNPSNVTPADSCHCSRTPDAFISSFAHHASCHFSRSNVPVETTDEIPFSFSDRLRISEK
Protocol: Recombinant full-length human MALT1 protein was expressed and purified. C-terminal Myc-FLAG-tagged full-length human HOIL1 was obtained from Origene. HOIL1 protein (0.05 μg/μL) is incubated with different concentrations of MALT1 in assay buffer (200 mM Tris-HCl, 0.8 M Na citrate, 0.1 mM EGTA, 0.05% CHAPS, 1 mM DTT, pH 7.4) for 2 h at 37° C. Cleavage of HOIL1 was analyzed by gel electrophoresis using a 4-12% Bis-Tris SDS-polyacrylamide (PAGE) gradient gel (Life Technologies). The presence of a small fragment was confirmed by immunoblotting with an N-terminal antibody (anti-N-terminal HOIL1; HPA024185; Sigma). Total HOIL1 was observed using a C-terminal directed antibody (anti-FLAG, clone M2, Sigma). These assays are performed with both the cleavable HOIL1 and, as a negative control, a non-cleavable HOIL1 (where Lys is substituted for Arg165).

[3] = system: mTor pathway (e.g., mTORc1 and/or mTORc2) in primary T cells; experiment: mTor pathway activation in stimulated primary T cells, pAkt/pS6 staining (Example 3); assay type: cell-based; details: primary T cells after anti-CD3/anti-CD28 activation
Protocol: Primary T cells are stimulated to activation and cultured in the presence of IL-2. For stimulation, cells are preincubated with anti-CD3F and anti-CD28 on ice and washed. Cells were stimulated by crosslinking the anti-CD3 antibody with a secondary antibody (e.g., anti-mouse IgG for 10 min) in complete T cell media and then fixed with pre-warmed fixation buffer. Cells are then washed with FACS buffer and permeabilized with permeabilization buffer pre-chilled to −20° C. and incubated for 30 min on ice. Cells are washed and then stained with the following antibodies or appropriate isotype controls anti-pAkt (Ser473) and anti-pS6 (Ser240/244).
MALT1 inhibitors (e.g., Compounds 1.1, 1.26, 1.27, 1.30, 1.33, 2.1, and/or 2.4) are incubated with the primary T cells after activation.

[4] = system: epithelial cells (e.g., HEK293 cells) bearing CARD14 gain-of-function mutations; κB-GFP readout of NFκB signaling; experiment: NF-κB-GFP reporter in epithelial cells transfected with CARD14 gain-of-function cDNA (Example 4); assay type: cell-based; details: epithelial cells with CARD14 GOF variants; flow cytometry
Protocol: MALT1 inhibitors (e.g., Compounds 1.1, 1.26, 1.27, 1.30, 1.33, 2.1, and/or 2.4) are incubated with epithelial cells (e.g., HEK293 cells) that lack endogenous CARD14 and bear transiently transfected CARD14 cDNA bearing gain-of-function mutations. The epithelial cells include a reporter gene (κB-GFP) that acts as a readout of NFκB signaling. The expression of NF-κB-GFP at baseline and after anti-CD3, or PMA/ionomycin stimulation is measured.
Epithelial cells bearing gain of function variants of CARD14 have elevated baseline activation of NF-κB-GFP, and higher still after stimulation, which is assessed by flow cytometry.

[5] = system: T cells that lack endogenous CARD11 and bear transfected CARD11 gain-of-function mutations; κB-GFP readout of NFκB signaling; experiment: NF-κB-GFP reporter in T cells transfected with CARD11 gain-of-function cDNA (Example 1); assay type: cell-based; details: T cells with CARD11 GOF variants; baseline and after anti-CD3 or PMA/ionomycin; flow cytometry
Protocol: MALT1 inhibitors (e.g., Compounds 1.1, 1.26, 1.27, 1.30, 1.33, 2.1, and/or 2.4) are incubated with T cells that lack endogenous CARD11 and bear transiently transfected CARD11 cDNA bearing gain-of-function mutations. An optional variation is co-transfecting 50:50 a copy of the wildtype CARD11 gene with the CARD11 gain of function mutant. The T-cells include a reporter gene (κB-GFP) that acts as a readout of NFκB signaling. The expression of NF-κB-GFP at baseline and after anti-CD3, or PMA/ionomycin stimulation is measured.
T-Cells bearing GOF variants of CARD11 have elevated baseline activation of NF-κB-GFP, and higher still after stimulation, which is assessed by flow cytometry.

[6] = target: T2, proteolytic function of MALT1 (cleavage of CYLD) (Homo sapiens, UniProt Q9UDY8); experiment: CYLD cleavage in Jurkat cells bearing GOF CARD11 (Example 6); assay type: cell-based; details: Jurkat cells with GOF E134G, C49Y or G123D CARD11; dose dependent in the range of about 100 nM to 10 μM
T2 construct: endogenous in cells; host or cells: Jurkat cells bearing GOF E134G, C49Y or G123D CARD11
T2 sequence (Q9UDY8 1-824): T1 sequence (Q9UDY8 1-824)
Protocol: Jurkat cells bearing GOF E134G, C49Y, or G123D CARD11 were also assessed for cleavage of CYLD as a measure of the proteolytic function of MALT1. In the absence of inhibitors, the Jurkat cells with the GOF CARD11 mutants cleaved CYLD.

[7] = system: Jurkat cells engineered with the E134G, C49Y, or G123D CARD11 gain of function (GOF) mutant; κB-GFP readout of NFκB signaling; experiment: NF-κB-GFP reporter in Jurkat cells engineered with CARD11 gain of function mutants (Example 6); assay type: cell-based; details: C49Y or G123D CARD11, all three mutants, dose dependent from about 100 nM to 5 μM
Protocol: Jurkat cells were engineered with the E134G, C49Y, or G123D CARD11 gain of function (GOF) mutant. The Jurkat cells included a reporter gene (κB-GFP) that acts as a readout of NFκB signaling.
Jurkat cells bearing GOF E134G, C49Y, or G123D CARD11 had elevated baseline activation of NF-κB-GFP. MALT1 inhibitors (e.g., Compound 1.1 or 2.4) were incubated with the above engineered Jurkat cells.

| Compound | cleavage of HOIL1 [2] | BENTA symptoms [1] | Jun/Fos, NF-κB and/or mTor pathway activation in patients [1] | mTor pathway (mTORc1 and/or mTORc2) activation [3] | NF-κB-GFP expression [4] | NF-κB-GFP expression [5] | CYLD cleavage [6] | NF-κB-GFP expression [7] |
| --- | --- | --- | --- | --- | --- | --- | --- | --- |
| CO[C@@H](C)c1c(Nc2ccc([C@H](N(C)C(=O)C3CCS(=O)(=O)CC3)C(F)(F)F)cc2C)cnc2nc(Cl)nn12 [Compound 1.33, N-[(1S)-1-[4-({2-chloro-7-[(1S)-1-methoxyethyl]-[1,2,4]triazolo [1,5-a]pyrimidin-6-yl}amino)-3-methylphenyl]-2,2,2-trifluoroethyl]-N-methyl 1,1-dioxo-1λ^6-thiane-4-carboxamide] | cleavage of HOIL1 is reduced | amelioration of their BENTA symptoms | reduced Jun/Fos, and/or NF-κB and/or a mTor pathway (e.g., mTORc1 and/or mTORc2) activation | suppress mTor pathway (e.g., mTORc1 and/or mTORc2) activation | lowered NF-κB-GFP expression | lowered NF-κB-GFP expression | – | – |
| CO[C@@H](C)c1c(Nc2ccc([C@H](N(C)C(=O)C3CCS(=O)(=O)CC3)C(F)(F)F)c(C)c2)cnc2nc(Cl)nn12 [Compound 1.30, N-[(1S)-1-[4-({2-chloro-7-[(1S)-1-methoxyethyl]-[1,2,4]triazolo[1,5-a]pyrimidin-6-yl}amino)-2-methylphenyl]-2,2,2-trifluoroethyl]-N-methyl-1,1-dioxo-1λ^6-thiane-4-carboxamide] | cleavage of HOIL1 is reduced | amelioration of their BENTA symptoms | reduced Jun/Fos, and/or NF-κB and/or a mTor pathway (e.g., mTORc1 and/or mTORc2) activation | suppress mTor pathway (e.g., mTORc1 and/or mTORc2) activation | lowered NF-κB-GFP expression | lowered NF-κB-GFP expression | – | – |
| CO[C@@H](C)c1c(Nc2ccc([C@@H](N(C)C(=O)C3CCS(=O)(=O)CC3)C(F)(F)F)cc2)cnc2nc(Cl)nn12 [Compound 1.26, N-[(1R)-1-[4-({2-chloro-7-[(1S)-1-methoxyethyl]-[L2,4]triazolo[1,5-a]pyrimidin-6-yl}amino)phenyl]-2,2,2-trifluoroethyl]-N-methyl-1,1-dioxo-1λ^6-thiane-4-carboxamide] | cleavage of HOIL1 is reduced | amelioration of their BENTA symptoms | reduced Jun/Fos, and/or NF-κB and/or a mTor pathway (e.g., mTORc1 and/or mTORc2) activation | suppress mTor pathway (e.g., mTORc1 and/or mTORc2) activation | lowered NF-κB-GFP expression | lowered NF-κB-GFP expression | – | – |
| CO[C@H](C)c1c(Nc2ccc([C@@H](N(C)C(=O)C3CCS(=O)(=O)CC3)C(F)(F)F)cc2)cnc2nc(Cl)nn12 [Compound 1.27, N—[(IR)—I-[4-({2-chloro-7-[(1R)-1-methoxyethyl]-[1,2,4]triazolo[1,5-a]pyrimidin-6-yl}amino)phenyl]-2,2,2-trifluoroethyl]-N-methyl-1,1-dioxo-1λ^6-thiane-4-carboxamide] | cleavage of HOIL1 is reduced | amelioration of their BENTA symptoms | reduced Jun/Fos, and/or NF-κB and/or a mTor pathway (e.g., mTORc1 and/or mTORc2) activation | suppress mTor pathway (e.g., mTORc1 and/or mTORc2) activation | lowered NF-κB-GFP expression | lowered NF-κB-GFP expression | – | – |

Further lines, with some results ahead:

| cleavage of HOIL1 [2] | Compound | BENTA symptoms [1] | Jun/Fos, NF-κB and/or mTor pathway activation in patients [1] | mTor pathway (mTORc1 and/or mTORc2) activation [3] | NF-κB-GFP expression [4] | NF-κB-GFP expression [5] | CYLD cleavage [6] | NF-κB-GFP expression [7] |
| --- | --- | --- | --- | --- | --- | --- | --- | --- |
| cleavage of HOIL1 is reduced | CN(C(=O)[C@H]1CC[C@H](C(=O)O)CC1)[C@@H](c1ccc(Nc2cnn(-c3ccccn3)c2C(F)(F)F)cc1)C(F)(F)F [Compound 2.4] | amelioration of their BENTA symptoms | reduced Jun/Fos, and/or NF-κB and/or a mTor pathway (e.g., mTORc1 and/or mTORc2) activation | suppress mTor pathway (e.g., mTORc1 and/or mTORc2) activation | lowered NF-κB-GFP expression | lowered NF-κB-GFP expression | suppress this CYLD cleavage in a dose dependent manner | reduced NF-κB-GFP expression in a dose dependent fashion |
| cleavage of HOIL1 is reduced | CN(C(=O)[C@H]1CC[C@H](C(=O)O)CC1)[C@@H](c1ccc(Nc2cnn(-c3ccccc3)c2C(F)(F)F)cc1)C(F)(F)F [Compound 2.1] | amelioration of their BENTA symptoms | reduced Jun/Fos, and/or NF-κB and/or a mTor pathway (e.g., mTORc1 and/or mTORc2) activation | suppress mTor pathway (e.g., mTORc1 and/or mTORc2) activation | lowered NF-κB-GFP expression | lowered NF-κB-GFP expression | – | – |

— US20260240850A1, “Compositions and Methods for Treating MALT1 Associated Diseases” (Rarefied Biosciences, Inc., priority 2023, published 2026)
